From ChEMBL document CHEMBL1201862, “PubChem BioAssay data set” (2004) come the findings set out here.

Common to all, as to assay: NCI anticancer screen, dose series, 48 h
The subject of assay [1] is EKVX.
The test system of assay [2] is SK-OV-3.
In assay [3] the test system is A549.
Assay [4] concerns ACHN.
Assay [5] has as its system SF-268.
Assay [6] concerns NCI-H23.
The subject of assay [7] is U-251.
In assay [8] the test system is UACC-257.
The test system of assay [9] is KM12.
The test system of assay [10] is SK-MEL-2.
The subject of assay [11] is SNB-78.
In assay [12] the test system is UO-31.
For assay [13], the system named is HOP-62.
In assay [14] the test system is A498.
Assay [15] has as its system NCI-H522.
Assay [16] has as its system T47D.
The subject of assay [17] is MCF7.
Assay [18] concerns PC-3.
The subject of assay [19] is DU-145.
Assay [20] deals with Hs-578T.

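Exposure lasted 48 hours, with cells grown in 96-well plates and compounds tested at five concentrations. Here, GI50 denotes the concentration required for 50% inhibition of growth.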 Calls of active or inactive are those of the source. No stated cut-off is given here; in the data, active = GI50 up to about 1.1 µM and inactive = higher.

With `O=C(CC1(O)C(=O)Nc2c(Cl)ccc(Cl)c21)c1ccc(Cl)cc1Cl` (configuration not stated), the GI50 in [1] is 21.6 µM (inactive); in assay [2], 21.9 µM (inactive); in assay [3], 23.5 µM (inactive); in assay [4], 16.6 µM (inactive); in assay [5] it was 27.6 µM (inactive); in assay [6] it was 19.9 µM (inactive). Further, the GI50 was 10 µM (inactive) in assay [7]; 11.6 µM (inactive) in [8]; 16.5 µM (inactive) in [9]; 21.3 µM (inactive) in [10]; 41.6 µM (inactive) in assay [11]; 20.7 µM (inactive) in [12]. Also, the GI50 in assay [13] was 24 µM (inactive); in assay [14], 26.3 µM (inactive).
For `[O-][S+]1Cc2ccccc2CSS1` (configuration not stated), the GI50 in assay [1] was 25.2 µM (inactive); in assay [2] it was 44.3 µM (inactive); in [3] it was 19 µM (inactive); in [4], 12.8 µM (inactive); in assay [5] it was 23.9 µM (inactive); in [6], 14.3 µM (inactive). In addition, the GI50 in assay [15] is 6.28 µM (inactive); in assay [7], 14.3 µM (inactive); in assay [8] it was 14.5 µM (inactive); in assay [9] it was 16.8 µM (inactive); in [11], 20 µM (inactive); in [12] it was 17.9 µM (inactive). In assay [14], the GI50 is 56.5 µM (inactive).
As to `COC(=O)C1=CCS(=O)(=O)C1`, the GI50 in assay [1], in [2], in assay [3], in assay [4], in assay [5] and in assay [6] was > 100 µM (inactive) in each case. The GI50 in [8], in assay [9], in assay [10], in assay [11], in [12] and in assay [13] was > 100 µM (inactive) throughout. Also, the GI50 in assay [14] is > 100 µM (inactive).
For `C=C1C(=O)OC2CC1C(OC(=O)/C=C/c1ccccc1)C/C(C)=C/CC/C(C)=C/CCC2(C)O` (configuration not stated), the GI50 in [16] was 3.47 µM (inactive); in [1], 1.81 µM (inactive); in [2] it was 2.19 µM (inactive); in assay [3], 1.71 µM (inactive); in assay [4], 1.61 µM (inactive); in [5], 1.68 µM (inactive). Moreover, the GI50 in [17] is 0.714 µM (active); in [6] it was 2.29 µM (inactive); in assay [15] it was 0.692 µM (active); in assay [18] it was 1.63 µM (inactive); in assay [7], 1.84 µM (inactive); in assay [19], 1.68 µM (inactive). In addition, the GI50 in [20] was 2.19 µM (inactive); in assay [8] it was 1.87 µM (inactive); in [9] it was 1.71 µM (inactive); in assay [10], 1.48 µM (inactive); in assay [12], 1.61 µM (inactive); in assay [13], 1.8 µM (inactive). The GI50 in assay [14] is 1.91 µM (inactive).
On to `O=C(OCCNC(=O)N1CC1)OCCNC(=O)N1CC1`, for which the GI50 in assay [16], in assay [1], in assay [2], in assay [3], in [4] and in assay [5] was > 10 µM (inactive) in each case. The GI50 in assay [17], in assay [6], in [15], in assay [18], in assay [7] and in assay [19] was > 10 µM (inactive) in each case. The GI50 in [20], in assay [8], in [9], in [10], in [12] and in assay [13] was > 10 µM (inactive) in each case. Besides, in [14], the GI50 is > 10 µM (inactive).
Turning to `CC(=O)O[C@H]1CC2C=CC3C(CCC31)O2` (some centres not stated), the GI50 in assay [1], in assay [2], in [3], in assay [4], in assay [5] and in [6] was > 100 µM (inactive) in each case. Also, the GI50 in assay [7], in assay [11], in assay [12] and in assay [13] was > 100 µM (inactive) throughout.
Take `Clc1cc(OC2C3CC4CC(C3)CC2C4)nc(Cl)n1` (configuration not stated): the GI50 is 20.1 µM (inactive) in [16]; 7.29 µM (inactive) in [1]; 67.5 µM (inactive) in assay [2]; 29.6 µM (inactive) in assay [3]; 17.7 µM (inactive) in assay [4]; 19.2 µM (inactive) in [5]. Further, the GI50 in assay [17] was 18.3 µM (inactive); in [6], 14.8 µM (inactive); in assay [15], 12.4 µM (inactive); in assay [18], 19.2 µM (inactive); in [7], 17 µM (inactive); in assay [19], 19 µM (inactive). The GI50 in [20] was 18.9 µM (inactive); in [8], 13.9 µM (inactive); in assay [9], 20.8 µM (inactive); in assay [10] it was 12 µM (inactive); in assay [12], 2.88 µM (inactive); in assay [13], 25.9 µM (inactive). For the same compound, in assay [14], the GI50 was 19.1 µM (inactive).
For the compound `CCCCC1(C(NC(=O)c2ccccc2Cl)c2ccncc2)C(=O)N(c2ccccc2)N(c2ccccc2)C1=O` (configuration not stated), the GI50 in [1] was 58.3 µM (inactive); in [2] it was 74.1 µM (inactive); in assay [3], 28.4 µM (inactive); in [4] it was 36.6 µM (inactive); in assay [5], > 100 µM (inactive); in assay [6] it was 44.7 µM (inactive). For the same compound, the GI50 in [15] was 31.6 µM (inactive); in [7], 34 µM (inactive); in [8], 29.7 µM (inactive); in assay [9], 81.3 µM (inactive); in assay [10], 50.9 µM (inactive); in [11], 56.8 µM (inactive). Also, the GI50 was 33 µM (inactive) in [12] and > 100 µM (inactive) in [13].
In the case of `Cc1cc2c(CC(=O)O)n[nH]c2c(C(=O)O)c1C`, the GI50 in [1], in [2], in assay [3], in assay [4], in [5] and in assay [6] was > 100 µM (inactive) throughout. Further, the GI50 in assay [7], in [8], in assay [10], in assay [11], in [12] and in assay [13] was > 100 µM (inactive) throughout.
Take `CCCCCCCCc1cc2c(O)c(c1)Cc1cc(CCCCCCCC)cc(c1O)Cc1cc(CCCCCCCC)cc(c1O)Cc1cc(CCCCCCCC)cc(c1O)Cc1cc(CCCCCCCC)cc(c1O)Cc1cc(CCCCCCCC)cc(c1O)C2`: the GI50 in [2], in [3], in assay [4], in assay [5], in assay [6] and in [7] was > 100 µM (inactive) in each case. The GI50 in assay [8] was > 100 µM (inactive); in assay [9], > 100 µM (inactive); in assay [10] it was > 100 µM (inactive); in assay [11], > 100 µM (inactive); in [12], > 100 µM (inactive); in assay [13], > 10 µM (inactive). In addition, the GI50 in assay [14] is > 100 µM (inactive).
In the case of `C#CCn1c(=O)c2cc(OC)c(OC)cc2n(CC#C)c1=O`, the GI50 in assay [16], in assay [1], in [2], in [3], in assay [4] and in assay [5] was > 10 µM (inactive) each time. For the same compound, the GI50 in [17], in assay [6], in assay [15], in [18], in [7] and in assay [19] was > 10 µM (inactive) in each case. Further, the GI50 in [20], in [8], in [9], in assay [10], in assay [12] and in assay [13] was > 10 µM (inactive) in each case. Besides, in assay [14], the GI50 is > 10 µM (inactive).
For the compound `COC1=CC(=O)C2C(C1=O)C(c1ccccc1)[C@H]2C` (some centres not stated), the GI50 in assay [1] was > 100 µM (inactive); in assay [2], > 100 µM (inactive); in assay [3], > 100 µM (inactive); in assay [4], 25.5 µM (inactive); in assay [5] it was > 100 µM (inactive); in assay [6], > 100 µM (inactive). The GI50 in assay [7] is > 100 µM (inactive); in assay [9], > 100 µM (inactive); in [10], > 100 µM (inactive); in assay [11], > 10 µM (inactive); in [12], > 100 µM (inactive); in assay [13], > 100 µM (inactive). Besides, the GI50 in [14] was > 100 µM (inactive).
As for `O=C1Sc2ccccc2C(=O)N2CSCC12` (configuration not stated), the GI50 in assay [1], in assay [2], in assay [3], in assay [4], in [5] and in [6] was > 100 µM (inactive) in each case. Also, the GI50 in assay [15], in assay [7], in assay [8], in assay [9], in [10] and in [11] was > 100 µM (inactive) in each case. In addition, the GI50 in [12] and in assay [13] was > 100 µM (inactive) throughout.
